Data as given in patent US12121596B2, “Near infrared fluorescent dyes, formulations and related methods” (Washington University, priority 2019, dated 2024).
Positions of bridges follow the written chain, without caps; N, C: chain ends. Non-standard residues stand in square brackets, D forms with d. Residues, ends and D or L forms follow the SMILES beside them. *: point of attachment. X1 = CC1(C)C(/C=C/C=C/C=C/C=C2/N(CCC(=O)*)c3ccc4ccccc4c3C2(C)C)=[N+](CCC(=O)[O-])c2ccc3ccccc3c21

Key:
[1] = Microscale thermophoresis (MST), calcium binding; conditions: read-out: apparent dissociation constant (Kd), calcium
From the text: Microscale thermophoresis (MST) studies biomolecular interactions in an aqueous environment without immobilization. MST exploits the directed movement of molecules along a microscopic temperature gradient. The movement rate and direction of movement depend on the species' size, charge, and solvation shell under study. Changes in this environment can change the thermophoretic movement of the species. MST can distinguish very small changes that occur, for example, when a small fluorescent molecule binds to the surface of a protein.
MST was performed using the Monolith NT.115 (Nanotemper Technologies, Munich, Germany). The appropriate agent(s) and LS301 stock samples were denatured in MST-1 buffer (50 mM Tris-HCl, pH 7.4; 150 mM NaCl; 10 mM MgCl2; 2% DMSO; 0.1% Tween-20; 4% SDS, 4 mM dithiothreitol (DTT)) at 97° C. for 10 min. Fluorescence was assessed in MST-2 buffer (50 mM Tris-HCl, pH 7.4; 150 mM NaCl; 10 mM MgCl2). The protein was prepared in MST-2 buffer, and 20 μL serial dilutions were made with protein concentration ranging from 3.05 pM to 50 nM (pANXA2) or 3.81 pM to 62.5 nM (ANXA2). All samples were loaded into NT.115 standard capillaries. […] The apparent Kd values were calculated from fragment concentration-dependent changes in normalized fluorescence (Fraction Bound) of LS301 after 5 seconds of thermophoresis based on mass action law using the MO Affinity Analysis v2.3 software.

[2] = molecular target: ANXA2 (Homo sapiens, UniProt P07355); assay: Microscale thermophoresis (MST), ANXA2 binding; conditions: read-out: apparent Kd, ANXA2
Chain of ANXA2 (P07355 whole entry): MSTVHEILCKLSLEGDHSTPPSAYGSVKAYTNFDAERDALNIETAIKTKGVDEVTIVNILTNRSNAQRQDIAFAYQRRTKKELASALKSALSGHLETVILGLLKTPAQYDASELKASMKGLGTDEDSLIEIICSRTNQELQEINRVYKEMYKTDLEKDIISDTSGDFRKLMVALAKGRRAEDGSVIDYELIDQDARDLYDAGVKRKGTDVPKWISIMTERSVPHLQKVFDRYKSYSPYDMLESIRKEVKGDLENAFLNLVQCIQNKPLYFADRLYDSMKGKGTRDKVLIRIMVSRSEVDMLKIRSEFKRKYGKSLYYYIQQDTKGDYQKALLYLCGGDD
From the text: Recombinant proteins and antibodies. Recombinant annexin A2, annexin A2 with glutathione-S-transferase (GST) tag, annexin A1, and annexin A3 proteins were purchased from MyBioSource, Inc. (San Diego, CA, USA). Purified ANXA2 protein and purified pANXA2 protein were gifts from Dr. Gabriel Bimme (Beth Israel Deaconess Medical Center, Boston, MA). Rabbit monoclonal anti-annexin A2 antibody (D11G2, #8235), Rabbit monoclonal anti-Rab5 (C8B1, #3547), and rabbit monoclonal anti-Rab7 (D95F2, #936 7) primary antibodies were purchased from Cell Signaling Technology, Inc. (Danvers, MA, USA). Mouse monoclonal anti-β-actin 2A3 (sc-517582), mouse monoclonal anti-pANXA2 antibody (11.Tyr 24) (sc-135752), rabbit polyclonal anti-NOS2 (C-19, sc-649), rabbit polyclonal anti-ARG1 (H-52, sc-20150) antibodies, and protein A/G agarose were purchased from Santa Cruz Biotechnology, Inc. (Dallas, TX, USA). […]
MST was performed using the Monolith NT.115 (Nanotemper Technologies, Munich, Germany). […] Fluorescence was assessed in MST-2 buffer (50 mM Tris-HCl, pH 7.4; 150 mM NaCl; 10 mM MgCl2). […] The apparent Kd values were calculated from fragment concentration-dependent changes in normalized fluorescence (Fraction Bound) of LS301 after 5 seconds of thermophoresis based on mass action law using the MO Affinity Analysis v2.3 software.

[3] = system: lung (A549), breast (MDA-MB-231 and 4T1), and myeloid leukemia (HL60) cell lines; assay: Cellular uptake in cancer cell lines, live-cell imaging; type: cell-based; conditions: A549, MDA-MB-231, 4T1, HL60
Experimental: In general, cultured cancer cells were grown and incubated with the indicated amount of probe in Lab-Tek 8-chambered slides for the indicated time durations. Cells were washed with PBS at selected time points and underwent conventional slide preparation, ICC if indicated, and viewing under epifluorescence or confocal. For live-cell imaging of LS301, internalization at 37° C. in human dermal fibroblasts (Coriell Cell Technologies) and tumor cells including 4T1luc, MDA-MB-231, 5TGM, A549, and HL60 (ATCC) cells were cultured in appropriate media supplemented with 10% […] and penicillin/streptomycin and incubated at 37° C. in 5% CO2 incubator. The cells were grown on Lab-Tek 8-chamber slides (Nunc Inc. Rochester, NY) in the culture medium overnight before the experiment. The compounds were dissolved in 20% DMSO in […] PBS (pH 7.4) (Sigma, St. Louis, MO) for stocking solution and mixed with culture medium to reach the final concentration. Cells were incubated with 1 μM compounds in chamber slides at different time points at 37° C. After LS301 treatment, the culture media was removed and followed by adding culture media containing SYTO 13 nuclear dye from (Thermo Fisher Scientific, Waltham, MA) for 45 minutes at 37° C. For assessing cellular colocalization of LS301 with lipid rafts, the Vybrant AlexaFluor 488 Lipid Raft Labeling Kit (Thermo Fisher Scientific, Waltham, MA, USA) was used per the manufacturer's instructions. […]. LS301 and AlexaFluor 488 fluorescence were imaged using the cypate filter set (Ex/Em 750-800 nm/818-873 nm) and fluorescein isothiocyanate (FITC) filter set (Ex/Em 460-500/510-560 nm), respectively.

[4] = system: tumor; assay: NIR contrast evaluation of DMSO and ethanol-based formulations; type: in vivo
From the text: No difference in histology between the various solvents was seen.

[5] = Solubility and dilution stability of LS301 stock solutions; type: physicochemical; conditions: transparent solution, no precipitate after centrifugation
Experimental: At room temperature (˜25° C.), 200 μL of DMSO was added to 0.5 mg LS301 and vortexed for about 1 minute to homogenize. The solution was centrifuged to remove any non-dissolved components. The concentration was measured via absorbance.
Generally, solution concentrations ranged between 290 and 330 μM. This concentrated solution was diluted dropwise into 800 μL phosphate-buffered saline (PBS) calculated such that the final concentration was 60 μM LS301 and that the final concentration was 20% DMSO/80% PBS by volume (“20% DMSO”).
A 1:1 PEG400/Ethanol solution (v/v) was prepared by mixing 4 mL of PEG400 and 4 mL of ethanol and vortexing at high speed for 1 minute. 200 μL of this 1:1 solution was added to about 0.5 mg of LS301 to produce a transparent solution (>300 μM). No precipitate was observed after centrifugation.
LS301's solubility in ethanol ranged near the cutoff for producing a 20% ethanol/PBS solution. […] The 1:1 PEG400/ethanol solution could maintain stability up to about 1-to-16 dilution. In vivo, a screening test was done by IV injection of 60 μM solution into a Balb/c mouse with two 4T1luc tumors dorsally injected. […] To confirm LS301's multitumor affinity in the new solvent, solutions were tested against HT1080, A431, and DBT tumor-bearing mice.

CC1(C)C(/C=C/C=C/C=C/C=C2/N(CCC(=O)N[C@@H]3CSSC[C@@H](C(=O)N[C@@H](CCCCN)C(=O)O)NC(=O)[C@@H]4CCCN4C(=O)[C@H](CO)NC(=O)[C@H](CC(=O)O)NC(=O)[C@H](CCCNC(=N)N)NC(=O)CNC3=O)c3ccc4ccccc4c3C2(C)C)=[N+](CCC(=O)[O-])c2ccc3ccccc3c21 [LS301, cypate-cyclic (DCys-Gly-Arg-Asp-Ser-Pro-Cys)-Lys-OH] (X1-[dC]GRDSPCK-OH; disulfide 1-7)
Kd [1]: 5.67 ± 2.4 nM | Kd [2]: 0.389 ± 0.015 nM | time over which maximum cellular uptake is maintained [3]: over 24 hours | time to maximum concentration of cellular uptake [3]: 12 h | tumor uptake compared to renal or hepatic clearance ([4]; 20% PEG400 solutions): increased tumor uptake | NIR contrast ([4]; in 20% PEG400): significantly increased contrast | clearance mechanism ([4]; in vivo): cleared via renal and hepatic mechanisms | solution concentration in 1:1 PEG400/Ethanol [5]: > 300 µM
